# pIC50: −log10 of the molar value.
# Key:
# IL-2 promoter = IL-2 promoter luciferase reporter assay in anti-CD3 activated Jurkat cells; type: cell-based; settings: Homo sapiens, TCR-induced (anti-CD3) IL-2 promoter luciferase, 2 h pre-incubation
# Description: In order to confirm whether the compounds of the invention can pass through a cell membrane and inhibit the expression of IL-2 gene leading to T-cell proliferation, the present inventors firstly confirmed T-cell activity by detecting the activity of the luciferase fused on the downstream of IL-2 promoter.
# To investigate the activity of IL-2 promoter, Jurkat cells (1×10^6) were transfected with a IL-2 reporter plasmids using Superfect™ (Qiagen Inc.). After 24 hours of transfection, Jurkat cells were pre-incubated with compounds of various concentrations (1 uM-50 uM) for 2 hours and further cultured on 35mm plate pre-coated with 5 ug/ml of anti-CD3 antibody, resulting in T cell activation. The luciferase activity was measured using Berthold luminometer LB953. The IC50 (50% inhibition concentration) of the compounds of the invention on TCR-induced IL-2 promoter activation are shown in Table 2.
# [1] = tested on: collagen-induced rheumatoid arthritis; test: Inhibition of collagen-induced rheumatoid arthritis in DBA1/LacJ mice; type: in vivo, mouse; set-up: key: sum of 4 leg scores (0-4 each), max 16; settings: 50 mg/kg/day i.p. daily; day 15 after treatment (day 36 after primary immunization); sum of scores of four legs, maximum 16; mean ± standard deviation
# Description: After 2 weeks, booster immunization was carried out with 50 μg C II/IFA. From the 3rd week after primary immunization, compounds of the present invention were injected daily into peritoneal cavities of 6-8 mice per group for 15-20 days.
# The vehicle control groups were injected daily with 100 μl of 5% ethanol-olive oil mixture in total 15-20 times. Widely used anti-rheumatic drug, Methotrexate, was dissolved in PBS and then injected to mice at 1 mg/kg/day every other day in total 8-10 times. Meanwhile, the compounds of the invention were dissolved in ethanol and then mulsified in olive oil, in which the final ethanol concentration was adjusted to 5% and the compounds of this invention was 50 mg/kg/day.
# From the 3rd week after primary immunization, the extent of edema and the joint swelling was monitored everyday to determine arthritic index. Arthitic index is the sum of the arthritic scores of all 4 legs and, therefore, maximum arthritis index of 16 can be achieved (e.g., [4 (maximum arthritic score)/leg]×[4 legs/mouse]=16 (maximum arthritis index/mouse)). […] was presented by the mean arthritis index±standard deviation of each mouse group.
# skin allograft rejection = test: Inhibition of skin allograft rejection (Balb/c tail skin grafted onto C57BL/6 mouse); type: in vivo; settings: 100 mg/kg/day into abdominal cavity from day of transplantation until complete rejection
# Description: For the experiment, allogeneic Balb/c(H-2d) mouse-tail skin was grafted onto C57BL/6(H-2b) mouse. Generally 7-8 mice were assigned to each group. All the phenyl derivatives were dissolved in 100% ethanol, mixed with olive oil, and adjusted to the final concentration of ethanol therein less than 5%. […] Meanwhile, for the group of untreated mice, an olive oil-ethanol mixture was administered as a control. The grafted skin was monitored daily after the removal of the bandage on days 7-9. Rejection was defined as more than 80% necrosis of the graft epithelium.
# GST-fused lck SH2 domain = target: T1, GST-fused lck SH2 domain (Homo sapiens, UniProt P06239); test: Inhibition of in vitro binding of lck SH2 domain to its cognate pYEEI peptide (BIAcore 2000); settings: IC50 class for inhibition of GST-lckSH2 binding to immobilized biotinylated […]pYEEIPI peptide; read-out: BOND DEGREE WITH SH2 OF 1ck
# T1 construct: GST (Glutathione transferase)-fused lck SH2 domain
# T1 sequence (P06239 127-224 limits assumed): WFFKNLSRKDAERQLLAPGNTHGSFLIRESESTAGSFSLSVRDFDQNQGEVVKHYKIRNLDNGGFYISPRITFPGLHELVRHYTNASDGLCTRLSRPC
# Description: The present inventors investigated the inhibition activity of phenyl derivatives on the interaction of GST (Glutathione transferase)-fused lck SH2 domain and a peptide […]pYEEIPI (comprising the sequence PYEEI, a cognate peptide of Lck SH2) by using a real time sensorgram (BIAcore 2000).
# At first, the biotinylated peptide was fixed on the surface of BIAcore analysis apparatus and then GST-lckSH2 protein was injected over the surface of the immobilized peptides. The binding of GST-lck SH2 with the peptide is represented as the resonance units (referred as “RU” hereinafter) and 1,000 RU corresponds to a change in surface concentration of 1 ng/mm^2. The binding of GST-lck with the fixed peptide causes the change of refractory index, leading to the increase of RU. In the mean time, when the binding of GST-lck with the fixed peptide is inhibited, RU decreases. Those results are represented in Table 1.
structure (smiles),measurement,setting,value
"CCCOC(=O)[C@H](Cc1ccc(O)c(O)c1)NC(=O)/C=C/c1ccc(O)c(O)c1 [Example 11, 3-(3,4-dihydroxy-phenyl)-(S)-2-[3-trans-(3,4-dihydroxy-phenyl)-acryloylamino]-propionic acid propyl ester]",pIC50,IL-2 promoter,5.31
same,Arthritis index,[1],6.1 ± 1.3
same,Survival time of skin graft tissue (days ± variance),skin allograft rejection,14.4 ± 0.9 days
same,pIC50,GST-fused lck SH2 domain,4.60 to 5.00
"CC(C)NC(=O)[C@@H](Cc1ccc(O)c(O)c1)OC(=O)/C=C/c1ccc(O)c(O)c1 [Example 58, (R)-3-(3,4-Dihydroxy-phenyl)-acrylic acid 2-(3,4-dihydroxy-phenyl)-1-isopropylcarbamoyl ethyl ester]",pIC50,IL-2 promoter,5.27
same,Arthritis index,[1],4.8 ± 0.7
same,Survival time of skin graft tissue (days ± variance),skin allograft rejection,12.5 ± 1.3 days
same,pIC50,GST-fused lck SH2 domain,4.30 to 4.60
"COC(=O)[C@@H](Cc1ccc(O)c(O)c1)NC(=O)CCc1ccc(O)c(O)c1 [Example 52, 3-(3,4-dihydroxy-phenyl)-2-[3-(3,4-dihydroxy-phenyl)-propionylamino]-propionic acid methyl ester]",pIC50,IL-2 promoter,4.68
same,Arthritis index,[1],4.0 ± 0.7
same,Survival time of skin graft tissue (days ± variance),skin allograft rejection,13.4 ± 1.2 days
same,pIC50,GST-fused lck SH2 domain,4.60 to 5.00
"O=C(/C=C/c1ccc(O)c(O)c1)N[C@@H](Cc1ccc(O)cc1)C(=O)O [Example 48, (S)-2-[trans-3-(3,4-dihydroxy-phenyl)-acryloylamino]-3-(4-hydroxy-phenyl)-propionic acid]",pIC50,IL-2 promoter,4.65
same,Arthritis index,[1],7.1 ± 0.4
same,Survival time of skin graft tissue (days ± variance),skin allograft rejection,12 ± 1.6 days
same,pIC50,GST-fused lck SH2 domain,4.30 to 4.60
"COC(=O)C(Cc1ccc(O)c(O)c1)NC(=O)Cc1ccc(O)c(O)c1 (centres unmarked) [Example 50, 3-(3,4-dihydroxy-phenyl)-2-[2-(3,4-dihydroxy-phenyl)-acetylamino]-propionic acid methyl ester]",pIC50,IL-2 promoter,4.73
same,Arthritis index,[1],4.8 ± 1.1
same,Survival time of skin graft tissue (days ± variance),skin allograft rejection,12.8 ± 0.9 days
same,pIC50,GST-fused lck SH2 domain,> 5.00
"CC(C)OC(=O)[C@H](Cc1ccc(O)c(O)c1)NC(=O)/C=C/c1ccc(O)c(O)c1 [Example 12, 3-(3,4-dihydroxy-phenyl)-(S)-2-[3-trans-(3,4-dihydroxy-phenyl)-acryloylamino]-propionic acid isopropyl ester]",pIC50,IL-2 promoter,5.02
same,Arthritis index,[1],5.1 ± 0.7
same,Survival time of skin graft tissue (days ± variance),skin allograft rejection,15.7 ± 0.8 days
same,pIC50,GST-fused lck SH2 domain,4.60 to 5.00
"COC(=O)C(Cc1ccc(O)c(O)c1)NC(=O)c1ccc(O)c(O)c1 (centres unmarked) [Example 51, 2-(3,4-dihydroxy-benzoylamino)-3-(3,4-dihydroxy-phenyl)-propionic acid methyl ester]",pIC50,IL-2 promoter,4.76
same,Arthritis index,[1],5.5 ± 0.5
same,Survival time of skin graft tissue (days ± variance),skin allograft rejection,12.5 ± 1.1 days
same,pIC50,GST-fused lck SH2 domain,> 5.00
"O=C(/C=C/c1ccc(O)c(O)c1)NCCc1ccc(O)c(O)c1 [Example 43, 3-(3,4-dihydroxy-phenyl)-N-[2-trans-(3,4-dihydroxy-phenyl)-ethyl]-acrylamide]",pIC50,IL-2 promoter,4.67
same,Arthritis index,[1],6.0 ± 1.9
same,Survival time of skin graft tissue (days ± variance),skin allograft rejection,13.1 ± 0.9 days
same,pIC50,GST-fused lck SH2 domain,4.30 to 4.60
"COC(=O)[C@H](Cc1ccc(O)c(O)c1)N(C)C(=O)/C=C/c1ccc(O)c(O)c1 [Example 36, 3-(3,4-dihydroxy-phenyl)-(S)-2-{[3-trans-(3,4-dihydroxy-phenyl)-acryloyl]-methyl-amino}-propionic acid methyl ester]",pIC50,IL-2 promoter,4.82
same,Arthritis index,[1],6.1 ± 1.9
same,Survival time of skin graft tissue (days ± variance),skin allograft rejection,12.9 ± 0.9 days
same,pIC50,GST-fused lck SH2 domain,4.30 to 4.60
"O=C(/C=C/c1ccc(O)c(O)c1)N[C@H](Cc1ccc(O)c(O)c1)C(=O)O [Example 2, 3-(3,4-dihydroxy-phenyl)-(R)-2-[3-trans-(3,4-dihydroxy-phenyl)-acryloylamino]-propionic acid]",pIC50,IL-2 promoter,4.82
same,Arthritis index,[1],7.2 ± 1.5
same,Survival time of skin graft tissue (days ± variance),skin allograft rejection,14.8 ± 0.5 days
same,pIC50,GST-fused lck SH2 domain,> 5.00
"COC(=O)[C@H](Cc1ccc(O)c(O)c1)NC(=O)/C=C/c1ccc(O)c(O)c1 [Example 8, 3-(3,4-dihydroxy-phenyl)-(S)-2-[3-trans-(3,4-dihydroxy-phenyl)-acryloylamino]-propionic acid methyl ester]",pIC50,IL-2 promoter,4.96
same,Arthritis index,[1],6.0 ± 1.1
same,Survival time of skin graft tissue (days ± variance),skin allograft rejection,15.2 ± 1.1 days
same,pIC50,GST-fused lck SH2 domain,4.60 to 5.00
"CCCOC(=O)[C@H](Cc1ccc(O)c(O)c1)NC(=S)/C=C/c1ccc(O)c(O)c1 [Example 25, 3-(3,4-dihydroxy-phenyl)-(S)-2-[3-trans-(3,4-dihydroxy-phenyl)-thioacryloylamino]-propionic acid propyl ester]",pIC50,IL-2 promoter,5.01
same,Arthritis index,[1],5.7 ± 0.4
same,Survival time of skin graft tissue (days ± variance),skin allograft rejection,14.8 ± 0.6 days
same,pIC50,GST-fused lck SH2 domain,4.60 to 5.00
"CN(CCc1ccc(O)c(O)c1)C(=O)/C=C/c1ccc(O)c(O)c1 [Example 44, 3-(3,4-dihydroxy-phenyl)-N-[2-(3,4-dihydroxy-phenyl)-ethyl]-N-methyl-acrylamide]",pIC50,IL-2 promoter,4.76
same,Arthritis index,[1],6.8 ± 1.0
same,Survival time of skin graft tissue (days ± variance),skin allograft rejection,12.5 ± 0.9 days
same,pIC50,GST-fused lck SH2 domain,4.30 to 4.60
"CN(C(=O)/C=C/c1ccc(O)c(O)c1)[C@@H](Cc1ccc(O)c(O)c1)C(=O)OC(C)(C)C [Example 41, 3-(3,4-dihydroxy-phenyl)-(S)-2-{[3-trans-(3,4-dihydroxy-phenyl)-acryloyl]-methyl-amino}-propionic acid tert-butyl ester]",pIC50,IL-2 promoter,4.80
same,Arthritis index,[1],6.7 ± 1.6
same,Survival time of skin graft tissue (days ± variance),skin allograft rejection,13.7 ± 0.6 days
same,pIC50,GST-fused lck SH2 domain,4.30 to 4.60
"O=C(/C=C/c1ccc(O)c(O)c1)N[C@H](Cc1ccc(O)cc1)C(=O)O [Example 46, (R)-2-[trans-3-(3,4-dihydroxy-phenyl)-acryloylamino]-3-(4-hydroxy-phenyl)-propionic acid]",pIC50,IL-2 promoter,4.72
same,Arthritis index,[1],6.1 ± 0.7
same,Survival time of skin graft tissue (days ± variance),skin allograft rejection,11.9 ± 0.9 days
same,pIC50,GST-fused lck SH2 domain,4.30 to 4.60
"COC(=O)C(Cc1ccc(O)c(O)c1)NC(=O)NCc1ccc(O)c(O)c1 (centres unmarked) [Example 49, 2-[3-(3,4-dihydroxy-benzyl)-ureido]-3-(3,4-dihydroxy-phenyl)-propionic acid methyl ester]",pIC50,IL-2 promoter,4.69
same,Arthritis index,[1],5.1 ± 0.9
same,Survival time of skin graft tissue (days ± variance),skin allograft rejection,13 ± 1.5 days
same,pIC50,GST-fused lck SH2 domain,4.60 to 5.00
"CC(C)(C)OC(=O)[C@H](Cc1ccc(O)c(O)c1)NC(=S)/C=C/c1ccc(O)c(O)c1 [Example 27, 3-(3,4-dihydroxy-phenyl)-(S)-2-[3-trans-(3,4-dihydroxy-phenyl)-thioacryloylamino]-propionic acid tert-butyl ester]",pIC50,IL-2 promoter,4.70
same,Arthritis index,[1],6.6 ± 1.1
same,Survival time of skin graft tissue (days ± variance),skin allograft rejection,12.3 ± 0.6 days
same,pIC50,GST-fused lck SH2 domain,4.30 to 4.60

# From patent US20040082664A1, “Derivatives of hydroxyphenyl, a method for preparing thereof and their pharmaceutical composition” (priority 2002, published 2004)
